# According to patent US20110178053A1, “AZACARBOLINE DERIVATIVES, PREPARATION METHOD THEREOF AND THERAPEUTIC USE OF SAME” (SANOFI-AVENTIS, priority 2008, published 2011):
# Tests used:
# Type in all cases: biochemical
# Pim-2 = molecular target: T1, Pim-2 (Homo sapiens, UniProt Q9P1W9); assay: TR-FRET assay, Pim-2 kinase (phosphorylation of Bad Ser112); conditions: TR-FRET; ATP 40 μM; read-out: IC50 Pim2
# T1 construct: His6-labelled recombinant full-length human Pim-1, Pim-2 or Pim-3 protein; His6; made in house
# T1 sequence (Q9P1W9 whole entry): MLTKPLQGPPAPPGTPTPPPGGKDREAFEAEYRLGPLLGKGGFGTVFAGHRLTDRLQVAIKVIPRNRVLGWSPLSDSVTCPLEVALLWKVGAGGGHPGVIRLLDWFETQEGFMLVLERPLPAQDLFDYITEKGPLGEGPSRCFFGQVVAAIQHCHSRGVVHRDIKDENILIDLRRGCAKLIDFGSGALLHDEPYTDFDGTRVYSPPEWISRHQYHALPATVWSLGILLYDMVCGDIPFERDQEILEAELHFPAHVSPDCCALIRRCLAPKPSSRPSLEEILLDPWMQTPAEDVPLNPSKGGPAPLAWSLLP
# Procedure: (§1) In order to determine the inhibition of activation of Pim kinases, the compounds of the invention are tested in accordance with a routinely used in vitro TR-FRET assay (Time-Resolved Fluorescence Resonance Energy Transfer). […] For the assay, the following reagents are used:
# (§2) Pim kinase—His6-labelled recombinant full-length human Pim-1, Pim-2 or Pim-3 protein (prepared according to J. Mol. Biol. (2005) 348, 183-193); Bad—His6-labelled recombinant full-length human Bad protein (prepared according to J. Mol. Biol. (2005) 348, 183-193); α-His6-APC—murine monoclonal antibody conjugated to allophycocyanin SureLight™ directed against the His6 label (Perkin-Elmer, No. AD0059H, Waltham, Mass., United States); • β-P˜Bad-Eu—murine monoclonal antibody (Cell Signaling Technology #9296B, Danvers, Mass., United States) directed against phosphoBad (Ser112) (7E11) custom-labelled by Perkin-Elmer with the reagent LANCE™ Eu-W1024.
# (§3) The assay is based on Perkin-Elmer's LANCE™ technology: the Eu-labelled antibody binds to phospho-Ser112 and generates a TR-FRET signal by interaction with the APC-labelled antibody directed against His6, bound to the His6 label of Bad. The TR-FRET signal is detected using a SpectraMax M5 plate reader (Molecular Devices) with the following settings: λex=340 nm, λem1=615 nm, λem2=665 nm. The ratio of the fluorescence signal at 665 nm to the fluorescence signal at 615 nm is used as the signal reading for the IC50 (calculation is based on the 4-parameter logistic model). The assay is performed in a 384-well format; the liquid manipulations are performed using a Beckman 3000 liquid manipulations station. The test compounds are tested at 10 concentration points in duplicate; the highest compound concentration is typically equal to 30 μM. The ATP concentration is equal to 40 μM, which is equivalent to the apparent KM value.
# Pim-3 = molecular target: T2, Pim-3 (Homo sapiens, UniProt Q86V86); assay: TR-FRET assay, Pim-3 kinase (phosphorylation of Bad Ser112); conditions: TR-FRET; ATP 40 μM; read-out: IC50 Pim3
# T2 construct: His6-labelled recombinant full-length human Pim-1, Pim-2 or Pim-3 protein; His6; made in house
# Procedure: as §1, §2, §3
# Pim-1 = molecular target: T3, Pim-1 (Homo sapiens, UniProt P11309); assay: TR-FRET assay, Pim-1 kinase (phosphorylation of Bad Ser112); conditions: TR-FRET; ATP 40 μM; read-out: IC50 Pim1
# T3 construct: His6-labelled recombinant full-length human Pim-1, Pim-2 or Pim-3 protein; His6; made in house
# T3 sequence (P11309 whole entry): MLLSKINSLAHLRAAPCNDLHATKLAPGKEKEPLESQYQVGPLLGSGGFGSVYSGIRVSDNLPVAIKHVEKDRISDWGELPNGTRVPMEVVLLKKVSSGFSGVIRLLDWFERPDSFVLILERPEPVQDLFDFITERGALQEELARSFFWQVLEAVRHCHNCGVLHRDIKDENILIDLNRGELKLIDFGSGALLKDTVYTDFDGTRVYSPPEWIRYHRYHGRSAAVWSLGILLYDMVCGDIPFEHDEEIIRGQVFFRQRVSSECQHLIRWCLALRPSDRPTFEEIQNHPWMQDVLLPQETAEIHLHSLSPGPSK
# Procedure: as §1, §2, §3
IC50 (Pim-2),IC50 (Pim-3),IC50 (Pim-1),Structure (SMILES)
> 5000 nM,1 to 100 nM,1 to 100 nM,"CN1CCN(c2cnc3[nH]c4cnc(-c5cccnc5)cc4c3c2)CC1 [Example 106, 3-(4-methylpiperazin-1-yl)-6-(pyrid-3-yl)-9H-pyrrolo[2,3-b:5,4-c′]dipyridine]"
> 5000 nM,1 to 100 nM,1 to 100 nM,"c1cncc(-c2cc3c(cn2)[nH]c2ncc(N4CCNCC4)cc23)c1 [Example 108, 3-(piperazin-1-yl)-6-(pyrid-3-yl)-9H-pyrrolo[2,3-b:5,4-c′]-dipyridine]"
> 5000 nM,100 to 1000 nM,1 to 100 nM,"Nc1cnc2[nH]c3cnc(-c4cccnc4)cc3c2c1 [Example 109, 6-(pyrid-3-yl)-9H-pyrrolo[2,3-b:5,4-c′]dipyrid-3-amine]"
1000 to 5000 nM,100 to 1000 nM,100 to 1000 nM,"Ic1cnc2[nH]c3cnc(-c4cccnc4)cc3c2c1 [Example 114, 3-iodo-6-(pyrid-3-yl)-9H-pyrrolo[2,3-b:5,4-c′]dipyridine]"
100 to 1000 nM,1 to 100 nM,1 to 100 nM,"c1cncc(-c2cc3c(cn2)[nH]c2ncc(-c4cccc(N5CCNCC5)c4)cc23)c1 [Example 132, 3-[3-(piperazin-1-yl)phenyl]-6-(pyrid-3-yl)-9H-pyrrolo[2,3-b:5,4-c′]dipyridine]"
> 5000 nM,1 to 100 nM,1 to 100 nM,"CN(C)CC(=O)N1CCN(c2cccc(-c3cnc4[nH]c5cnc(-c6cccnc6)cc5c4c3)c2)CC1 [Example 134, 2-(dimethylamino)-1-(4-{3-[6-(pyrid-3-yl)-9H-pyrrolo[2,3-b:5,4-c′]dipyrid-3-yl]-phenyl}piperazin-1-yl)ethanone]"
100 to 1000 nM,1 to 100 nM,1 to 100 nM,"CN(C)CC(=O)N1CCN(c2ccc(-c3cnc4[nH]c5cnc(-c6cccnc6)cc5c4c3)cc2)CC1 [Example 135, 2-(dimethylamino)-1-(4-{4-[6-(pyrid-3-yl)-9H-pyrrolo[2,3-b:5,4-c′]dipyrid-3-yl]-phenyl}piperazin-1-yl)ethanone]"
> 5000 nM,1 to 100 nM,1 to 100 nM,"CC(=O)N1CCN(c2cccc(-c3cnc4[nH]c5cnc(-c6cccnc6)cc5c4c3)c2)CC1 [Example 136, 1-(4-{3-[6-(pyrid-3-yl)-9H-pyrrolo[2,3-b:5,4-c′]dipyrid-3-yl]phenyl}piperazin-1-yl)-ethanone]"
100 to 1000 nM,1 to 100 nM,1 to 100 nM,"CC(=O)N1CCN(c2ccc(-c3cnc4[nH]c5cnc(-c6cccnc6)cc5c4c3)cc2)CC1 [Example 137, 1-(4-{4-[6-(pyrid-3-yl)-9H-pyrrolo[2,3-b:5,4-c′]dipyrid-3-yl]phenyl}piperazin-1-yl)-ethanone]"
100 to 1000 nM,1 to 100 nM,1 to 100 nM,"CN1CCN(c2ccc(-c3cnc4[nH]c5cnc(-c6cccnc6)cc5c4c3)cc2)CC1 [Example 138, 3-[4-(4-methylpiperazin-1-yl)phenyl]-6-(pyrid-3-yl)-9H-pyrrolo[2,3-b:5,4-c′]dipyridine]"
1000 to 5000 nM,1 to 100 nM,1 to 100 nM,"CN1CCN(c2cccc(-c3cnc4[nH]c5cnc(-c6cccnc6)cc5c4c3)c2)CC1 [Example 139, 3-[3-(4-methylpiperazin-1-yl)phenyl]-6-(pyrid-3-yl)-9H-pyrrolo[2,3-b:5,4-c′]dipyridine]"
1000 to 5000 nM,1 to 100 nM,1 to 100 nM,"c1cncc(-c2cc3c(cn2)[nH]c2ncc(-c4ccc(N5CCN(C6CC6)CC5)cc4)cc23)c1 [Example 141, 3-[4-(4-cyclopropylpiperazin-1-yl)phenyl]-6-(pyrid-3-yl)-9H-pyrrolo[2,3-b:5,4-c′]-dipyridine]"
> 5000 nM,1 to 100 nM,1 to 100 nM,"c1cncc(-c2cc3c(cn2)[nH]c2ncc(-c4cccc(N5CCN(C6CC6)CC5)c4)cc23)c1 [Example 142, 3-[3-(4-cyclopropylpiperazin-1-yl)phenyl]-6-(pyrid-3-yl)-9H-pyrrolo[2,3-b:5,4-c′]-dipyridine]"
> 5000 nM,1 to 100 nM,1 to 100 nM,"c1cncc(-c2cc3c(cn2)[nH]c2ncc(-c4ccnc(N5CCNCC5)c4)cc23)c1 [Example 144, 3-[2-(piperazin-1-yl)pyrid-4-yl]-6-(pyrid-3-yl)-9H-pyrrolo[2,3-b:5,4-c′]dipyridine]"

# More lines, now with the values behind:
Structure (SMILES),IC50 (Pim-2),IC50 (Pim-3),IC50 (Pim-1)
"CC(C)(O)C#Cc1c(F)cnc2[nH]c3cnc(-c4cccnc4)cc3c12 [Example 91, 4-[3-fluoro-6-(pyrid-3-yl)-9H-pyrrolo[2,3-b:5,4-c′]dipyrid-4-yl]-2-methylbut-3-yn-2-ol]",1000 to 5000 nM,1 to 100 nM,1 to 100 nM
"COc1c(F)cnc2[nH]c3cnc(-c4cccnc4)cc3c12 [Example 105, 3-fluoro-4-methoxy-6-(pyrid-3-yl)-9H-pyrrolo[2,3-b:5,4-c′]dipyridine]",> 5000 nM,100 to 1000 nM,1 to 100 nM
"FC(F)(F)COc1cnc2[nH]c3cnc(-c4cccnc4)cc3c2c1 [Example 111, 6-(pyrid-3-yl)-3-(2,2,2-trifluoroethoxy)-9H-pyrrolo[2,3-b:5,4-c′]dipyridine]",1000 to 5000 nM,100 to 1000 nM,1 to 100 nM
"CC(C)Cn1cc(-c2cnc3[nH]c4cnc(-c5cccnc5)cc4c3c2)cn1 [Example 117, 3-[1-(2-methyl-propyl)-1H-pyrazol-4-yl]-6-(pyrid-3-yl)-9H-pyrrolo[2,3-b:5,4-c′]dipyridine]",1000 to 5000 nM,1 to 100 nM,1 to 100 nM
"CN(C)CCCOc1ccc(-c2cnc3[nH]c4cnc(-c5cccnc5)cc4c3c2)cn1 [Example 145, N,N-dimethyl-3-({5-[6-(pyrid-3-yl)-9H-pyrrolo[2,3-b:5,4-c′]dipyrid-3-yl]pyrid-2-yl}-oxy)propan-1-amine]",100 to 1000 nM,1 to 100 nM,1 to 100 nM
"CN(C)CCCOc1ccc(-c2cnc3[nH]c4cnc(-c5cccnc5)cc4c3c2)cc1 [Example 146, N,N-dimethyl-3-{4-[6-(pyrid-3-yl)-9H-pyrrolo[2,3-b:5,4-c′]dipyrid-3-yl]phenoxy}-propan-1-amine]",100 to 1000 nM,1 to 100 nM,1 to 100 nM
"c1cncc(-c2cc3c(cn2)[nH]c2ncc(-c4ccc(OCCCN5CCCCC5)cc4)cc23)c1 [Example 147, 3-{4-[3-(piperid-1-yl)propoxy]phenyl}-6-(pyrid-3-yl)-9H-pyrrolo[2,3-b:5,4-c′]-dipyridine]",100 to 1000 nM,1 to 100 nM,1 to 100 nM
"c1cncc(-c2cc3c(cn2)[nH]c2ncc(-c4ccc(OCCN5CCOCC5)cc4)cc23)c1 [Example 148, 3-{4-[2-(morpholin-4-yl)ethoxy]phenyl}-6-(pyrid-3-yl)-9H-pyrrolo[2,3-b:5,4-c′]-dipyridine]",100 to 1000 nM,1 to 100 nM,1 to 100 nM
"c1cncc(-c2cc3c(cn2)[nH]c2ncc(-c4ccc(OCCCN5CCOCC5)cc4)cc23)c1 [Example 149, 3-{4-[3-(morpholin-4-yl)propoxy]phenyl}-6-(pyrid-3-yl)-9H-pyrrolo[2,3-b:5,4-c′]-dipyridine]",100 to 1000 nM,1 to 100 nM,1 to 100 nM
"c1cncc(-c2cc3c(cn2)[nH]c2ncc(-c4ccc(OCCn5ccnc5)cc4)cc23)c1 [Example 150, 3-{4-[2-(1H-imidazol-1-yl)ethoxy]phenyl}-6-(pyrid-3-yl)-9H-pyrrolo[2,3-b:5,4-c′]-dipyridine]",100 to 1000 nM,1 to 100 nM,1 to 100 nM
"Oc1ccc(-c2cnc3[nH]c4cnc(-c5cccnc5)cc4c3c2)cc1 [Example 151, 4-[6-(pyrid-3-yl)-9H-pyrrolo[2,3-b:5,4-c′]dipyrid-3-yl]phenol]",100 to 1000 nM,1 to 100 nM,1 to 100 nM
"CS(=O)(=O)N1CCN(CCCOc2ccc(-c3cnc4[nH]c5cnc(-c6cccnc6)cc5c4c3)cc2)CC1 [Example 152, 3-(4-{3-[4-(methylsulfonyl)piperazin-1-yl]propoxy}phenyl)-6-(pyrid-3-yl)-9H-pyrrolo-[2,3-b:5,4-c′]dipyridine]",100 to 1000 nM,1 to 100 nM,1 to 100 nM
"CCN(CC)CCOc1cccc(-c2cnc3[nH]c4cnc(-c5cccnc5)cc4c3c2)c1 [Example 153, N,N-diethyl-2-{3-[6-(pyrid-3-yl)-9H-pyrrolo[2,3-b:5,4-c′]dipyrid-3-yl]phenoxy}ethan-amine]",1000 to 5000 nM,1 to 100 nM,1 to 100 nM
